The values below come from patent US20050176619A1, “Antitumoral formulations of thioxanthenone” (priority 2001, published 2005).

The structures appear in SMILES notation. Converted amounts (≈) assume the structure as drawn.

Broadly, the solubility is the dissolved amount per volume that the medium holds.

Data set [1] is described as follows: Solubility in water. Type of data set: physicochemical. An excerpt: (§1) It is desirable in the treatment of tumors and cancers to provide the active pharmaceutical ingredient as a ready-to-use (RTU) solution formulation which is pharmaceutically stable over prolonged periods of storage. […] Accordingly, it is an object of the present invention to overcome these difficulties by providing a stable solution formulation of N-[[1-[[2-(diethylamino)ethyl]amino]-7-methoxy-9-oxothioxanthen-4-yl]methyl]formamide, or a pharmaceutically acceptable acid-addition salt thereof, in ready-to-use form.

Data set [2] is described as follows: Stability under acidic conditions. Type of data set: physicochemical.
Description: as §1

In data set [1], `CCN(CC)CCNc1ccc(CNC=O)c2sc3ccc(OC)cc3c(=O)c12` [N-[[1-[[2-(diethylamino)ethyl]amino]-7-methoxy-9-oxothioxanthen-4-yl]methyl]formamide] registered a solubility of 100 µg/mL (≈ 242 µM). In addition, the “stability under acidic conditions” value in data set [2] is listed as “unstable under acidic conditions”.
